Measurements taken from patent publication US20260053811A1, “METHODS OF TREATING HYPERTENSION IN OBESE SUBJECTS” (Mineralys Therapeutics, Inc., priority 2022, published 2026).

System: hypertensive subjects
Assay: Seated automated office blood pressure (AOBP) in randomized, placebo-controlled, dose-ranging study
Assay type: in vivo, human
Details: Part 1, 12.5 mg QD
Description: A randomized, double-blinded, placebo-controlled, dose-ranging, multicenter study was conducted to evaluate the effect of orally administered Compound A HBr on blood pressure for the treatment of hypertension in male and female subjects ≥18 years of age.
The study consists of two parts. For enrollment into Part 1 of the study, a subject's value of plasma renin activity (PRA) must be ≤1 ng/mL/h based on morning measurement. If the value of PRA >1 ng/mL/h based on morning measurement, then subjects may be eligible to enter Part 2 of the study.
For Part 1, 163 enrolled subjects ≥18 years of age were randomized into 6 equal treatment groups (1:1:1:1:1:1) to 12.5 mg BID, 25 mg BID, 12.5 mg QD, 50 mg QD, 100 mg QD, or placebo. After a review of interim clinical data, the 2 lowest dose levels (12.5 mg QD and 12.5 mg BID) were stopped for future randomization due to a lack of consistent meaningful reduction of blood pressure, but the patients randomized to that point remained in the study through completion. Thus, after the review of interim clinical data, subjects were randomized into 4 equal treatment groups (1:1:1:1) to 25 mg BID, 50 mg QD, 100 mg QD, or placebo.
For Part 2, 36 enrolled subjects ≥18 years of age were randomized (5:1) to either 100 mg QD Compound A HBr or placebo such that the Compound A HBr treatment group consisted of approximately 30 subjects and the placebo treatment group will consist of approximately 6 subjects.
Subjects orally administered the assigned study drug (Compound A HBr or placebo) according to the assigned dosing regimen for 8 weeks beginning on Study Day 1. All subjects in Part 1 (regardless of dosing group) received BID dosing to preserve the integrity of the blind; active drug is administered as the morning dose for all QD dose groups. Subjects returned to the research facility or were seen by the clinical investigator or approved home health care professional at the end of Study Weeks 1, 2, 3, 4, 5, 6, 7, and 8 (±2 days) for protocol-defined efficacy and safety assessments and procedures, assessment of adverse events (AEs), and confirmation of compliance with study drug usage. Subjects also completed a telephone visit and blood pressure (BP) check at home approximately 3 days post last dose of study drug. Subjects attended up to 14 full clinic visits, including a pre-Screening visit, a Screening/start of Placebo Run-in visit, a second visit during Placebo Run-in, a clinic visit to initiate the ABPM procedure, a Randomization visit, 8 weekly visits during double-blind treatment, and an end-of-study visit scheduled 4 weeks after the last study treatment for final efficacy and safety assessments.
An automated oscillometric sphygmomanometer device was used to measure the subjects' systolic and diastolic blood pressure in office after approximately 5 minutes of rest in the seated position.
The primary endpoint is the change in office-measured (mean of last 2 of 5 unattended measurements using an automated oscillometric sphygmomanometer device after approximately 5 minutes of rest in the seated position) systolic blood pressure (SBP) from baseline to the end of Study Week 8.
Secondary endpoints of this study were: • (a) Change in 24-hour ambulatory blood pressure monitoring (ABPM) parameters (systolic and diastolic) from baseline to the end of Study Week 7. • (b) Change in office-measured SBP from baseline to the end of Study Weeks 1, 2, 3, 4, 5, 6, and 7. • (c) Change in office-measured diastolic blood pressure (DBP) from baseline to the end of Study Weeks 1, 2, 3, 4, 5, 6, 7, and 8. • (d) Proportion of subjects who achieve office-measured BP of ≤130/80 mm Hg by the end of Study Week 8.

CC(=O)N[C@H]1CC[C@H](NC(=O)CN2CCN(c3nncc(-c4ccc(C)cc4)n3)CC2)CC1 [Compound A HBr]
Mean (SD) Automated Office-Measured Systolic Blood Pressure at Wk 8 (Age 65-79 yr): 135.63 (15.23) mmHg | Mean (SD) Change from Baseline at Week 8 in Automated Office-Measured Diastolic Blood Pressure (Age 65-79 yr): −5.06 (7.49) mmHg | Mean (SD) Change from Baseline at Week 8 in Automated Office-Measured Systolic Blood Pressure (Age 65-79 yr): −8.50 (14.04) mmHg | Mean (SD) Automated Office-Measured Diastolic Blood Pressure at Wk 8 (Age <65 yr): 82.63 (20.67) mmHg | Mean (SD) Automated Office-Measured Systolic Blood Pressure at Wk 8 (Age <65 yr): 144.88 (25.16) mmHg | Mean (SD) Change from Baseline at Week 8 in Automated Office-Measured Diastolic Blood Pressure (Age <65 yr): −2.19 (9.98) mmHg | Mean (SD) Change from Baseline at Week 8 in Automated Office-Measured Systolic Blood Pressure (Age <65 yr): −5.75 (22.93) mmHg | Mean (SD) Automated Office-Measured Diastolic Blood Pressure at Wk 8 (Age ≥80 yr): 93.50 (37.48) mmHg | Mean (SD) Automated Office-Measured Systolic Blood Pressure at Wk 8 (Age ≥80 yr): 145.00 (42.43) mmHg | Mean (SD) Change from Baseline at Week 8 in Automated Office-Measured Diastolic Blood Pressure (Age ≥80 yr): 13.00 (37.48) mmHg | Mean (SD) Change from Baseline at Week 8 in Automated Office-Measured Systolic Blood Pressure (Age ≥80 yr): −4.75 (39.95) mmHg | Mean (SD) Automated Office-Measured Diastolic Blood Pressure at Wk 8 (BMI 25−30 kg/m^2): 76.00 (6.22) mmHg | Mean (SD) Change from Baseline at Week 8 in Automated Office-Measured Diastolic Blood Pressure (BMI 25−30 kg/m^2): −4.64 (7.81) mmHg | Mean (SD) Automated Office-Measured Diastolic Blood Pressure at Wk 8 (BMI <25 kg/m^2): 73.00 (NE) mmHg | Mean (SD) Change from Baseline at Week 8 in Automated Office-Measured Diastolic Blood Pressure (BMI <25 kg/m^2): −1.50 (NE) mmHg | Mean (SD) Automated Office-Measured Diastolic Blood Pressure at Wk 8 (BMI >30 kg/m^2): 86.10 (21.92) mmHg | Mean (SD) Change from Baseline at Week 8 in Automated Office-Measured Diastolic Blood Pressure (BMI >30 kg/m^2): 0.20 (16.85) mmHg | Mean (SD) Automated Office-Measured Systolic Blood Pressure at Wk 8 (BMI at baseline 25-30 kg/m^2): 134.14 (18.96) mmHg | Mean (SD) Change from Baseline at Week 8 in Automated Office-Measured Systolic Blood Pressure (BMI at baseline 25-30 kg/m^2): −7.71 (19.07) mmHg | Mean (SD) Automated Office-Measured Systolic Blood Pressure at Wk 8 (BMI at baseline <25 kg/m^2): 137.00 (NE) mmHg | Mean (SD) Change from Baseline at Week 8 in Automated Office-Measured Systolic Blood Pressure (BMI at baseline <25 kg/m^2): −11.50 (NE) mmHg | Mean (SD) Automated Office-Measured Systolic Blood Pressure at Wk 8 (BMI at baseline >30 kg/m^2): 145.80 (24.73) mmHg | Mean (SD) Change from Baseline at Week 8 in Automated Office-Measured Systolic Blood Pressure (BMI at baseline >30 kg/m^2): −5.80 (22.31) mmHg | Mean (SD) Automated Office-Measured Diastolic Blood Pressure at Wk 8 (Race Black or AA): 85.00 (19.41) mmHg | Mean (SD) Automated Office-Measured Systolic Blood Pressure at Wk 8 (Race Black or AA): 147.50 (22.06) mmHg | Mean (SD) Change from Baseline at Week 8 in Automated Office-Measured Diastolic Blood Pressure (Race Black or AA): −0.69 (7.56) mmHg | Mean (SD) Change from Baseline at Week 8 in Automated Office-Measured Systolic Blood Pressure (Race Black or AA): −1.44 (16.04) mmHg | Mean (SD) Automated Office-Measured Diastolic Blood Pressure at Wk 8 (Race Other): 78.60 (15.76) mmHg | Mean (SD) Automated Office-Measured Systolic Blood Pressure at Wk 8 (Race Other): 135.40 (21.55) mmHg | Mean (SD) Change from Baseline at Week 8 in Automated Office-Measured Diastolic Blood Pressure (Race Other): −2.65 (17.00) mmHg | Mean (SD) Change from Baseline at Week 8 in Automated Office-Measured Systolic Blood Pressure (Race Other): −11.20 (22.29) mmHg | Mean (SD) Automated Office-Measured Diastolic Blood Pressure at Wk 8 (Seated SBP Tertile High): 84.22 (23.90) mmHg | Mean (SD) Change from Baseline at Week 8 in Automated Office-Measured Diastolic Blood Pressure (Seated SBP Tertile High): −1.06 (18.28) mmHg | Mean (SD) Automated Office-Measured Diastolic Blood Pressure at Wk 8 (Seated SBP Tertile Low): 78.50 (7.48) mmHg | Mean (SD) Change from Baseline at Week 8 in Automated Office-Measured Diastolic Blood Pressure (Seated SBP Tertile Low): −4.17 (6.69) mmHg | Mean (SD) Automated Office-Measured Diastolic Blood Pressure at Wk 8 (Seated SBP Tertile Middle): 79.00 (5.57) mmHg | Mean (SD) Change from Baseline at Week 8 in Automated Office-Measured Diastolic Blood Pressure (Seated SBP Tertile Middle): 0.83 (5.62) mmHg | Mean (SD) Automated Office-Measured Diastolic Blood Pressure at Wk 8 (Sex Female): 75.11 (8.40) mmHg | Mean (SD) Automated Office-Measured Systolic Blood Pressure at Wk 8 (Sex Female): 136.00 (17.23) mmHg | Mean (SD) Change from Baseline at Week 8 in Automated Office-Measured Diastolic Blood Pressure (Sex Female): −4.83 (8.08) mmHg | Mean (SD) Change from Baseline at Week 8 in Automated Office-Measured Systolic Blood Pressure (Sex Female): −9.22 (10.54) mmHg | Mean (SD) Automated Office-Measured Diastolic Blood Pressure at Wk 8 (Sex Male): 87.78 (21.70) mmHg | Mean (SD) Automated Office-Measured Systolic Blood Pressure at Wk 8 (Sex Male): 145.56 (26.10) mmHg | Mean (SD) Change from Baseline at Week 8 in Automated Office-Measured Diastolic Blood Pressure (Sex Male): 1.28 (17.06) mmHg | Mean (SD) Automated Office-Measured Systolic Blood Pressure at Wk 8 (Systolic Blood Pressure Tertile at Baseline High): 146.33 (26.41) mmHg
